What was measured:
[1] = test system: TNFα production in RAW 264.7 macrophage cell line; test: Mouse TNF alpha quantification assay (LPS-stimulated macrophages, ELISA); assay type: cell-based; details: RAW264.7, RAW 264.7 murine leukemia virus transformed macrophage cell lines, LPS stimulation, read-out: TNF-α % Inhibition at 30 μM
[2] = test system: IL6 production in RAW 264.7 macrophage cell line; test: Mouse IL6 quantification assay (LPS-stimulated macrophages, ELISA); assay type: cell-based; details: RAW264.7, RAW 264.7 murine leukemia virus transformed macrophage cell lines, LPS stimulation, read-out: IL-6 % Inhibition at 30 μM

| SMILES | inhibition at 30 µM [1] [%] | inhibition at 30 µM [2] [%] |
| --- | --- | --- |
| Cc1sc2c(O)nc(-c3ccccn3)nc2c1C(=O)N1CCN(c2ccccc2)CC1C (stereo not shown) [drawing 2333] | 0 | 1 to 25 |
| Cc1sc2c(O)nc(-c3ccccn3)nc2c1C(=O)N1CCN(Cc2cccc(O)c2)CC1 [drawing 2334] | 0 | 26 to 50 |
| COC(=O)c1c(C)sc2c(N)nc(-c3ccccn3)nc12 [drawing 2335] | 1 to 25 | 76 to 100 |
| Oc1nc(-c2ccccn2)nc2c(C3CCCCC3)csc12 [drawing 2336] | 0 | 0 |
| Oc1nc(-c2ccccn2)nc2c(C3CCCC3)csc12 [drawing 2337] | 26 to 50 | 51 to 75 |
| CC(C)Cc1csc2c(O)nc(-c3ccccn3)nc12 [drawing 2338] | 76 to 100 | 76 to 100 |
| COc1cnc(-c2cn(C)cn2)nc1O [drawing 2339] | 0 | 26 to 50 |
| COc1cnc(-c2nccn2C)nc1O [drawing 2340] | 0 | 1 to 25 |
| Nc1cccc(-c2csc3c(O)nc(-c4ccccn4)nc23)n1 [drawing 2341] | 26 to 50 | 76 to 100 |
| Cc1sc2c(O)nc(-c3ccccn3)nc2c1-c1ccccc1Cl [drawing 2342] | 51 to 75 | 51 to 75 |
| COc1cnc(-c2cnc[nH]2)nc1O [drawing 2343] | 0 | 1 to 25 |
| COc1cnc(CNC(=O)c2csc3nc(-c4ccccn4)nc(N)c23)[nH]c1=O [drawing 2344] | 1 to 25 | 1 to 25 |
| Oc1nc(-c2ccccn2)nc2c(C3CC3)csc12 [drawing 2345] | 1 to 25 | 1 to 25 |
| Oc1nc(-c2ccccn2)nc2c(CC3CNC3)csc12 [drawing 2346] | 1 to 25 | 76 to 100 |
| COc1cnc(CNC(=O)c2csc3c(O)nc(-c4ccccn4)nc23)[nH]c1=O [drawing 2347] | 0 | 1 to 25 |
| COc1cnc(CNC(=O)c2cc3nc(-c4ccccn4)nc(O)c3s2)[nH]c1=O [drawing 2348] | 1 to 25 | 0 |
| Cc1sc2c(O)nc(-c3ccccn3)nc2c1Br [drawing 2349] | 0 | 26 to 50 |
| COc1cnc(CNC(=O)c2c(C)sc3c(O)nc(-c4ccccn4)nc23)[nH]c1=O [drawing 2350] | 1 to 25 | 0 |
| COc1cnc(CNC(=O)c2sc3c(O)nc(-c4ccccn4)nc3c2C)[nH]c1=O [drawing 2351] | 1 to 25 | 1 to 25 |
| O=C(c1csc2c(O)nc(-c3ccccn3)nc12)N1CCNC(c2ccc(Cl)cc2)C1 (stereo not shown) [drawing 2352] | 1 to 25 | 76 to 100 |
| Oc1nc(-c2ccccn2)nc2c(CC3CCNC3)csc12 (stereo not shown) [drawing 2353] | 1 to 25 | 51 to 75 |
| O=c1[nH]c(-c2ccccn2)nc2c([C@@H]3O[C@H](CO)[C@@H](O)[C@H]3O)csc12 [drawing 2354] | 26 to 50 | 1 to 25 |

| SMILES | inhibition at 30 µM [1] [%] | inhibition at 30 µM [2] [%] |
| --- | --- | --- |
| Cn1cnc(-c2nc(O)c3c(-c4ccccc4)c(-c4ccncc4)sc3n2)c1 [drawing 2355] | 1 to 25 | 0 |
| COCCNc1nc(-c2ccccn2)nc(-c2cccc(OCCN(C)C)c2)c1Oc1ccccc1 [drawing 2356] | 1 to 25 | 0 |
| COCCNc1nc(-c2cn(C)cn2)nc2sc(-c3ccncc3)c(-c3ccccc3)c12 [drawing 2357] | 1 to 25 | 51 to 75 |
| COc1nc(-c2cn(C)cn2)nc2sc(-c3ccncc3)c(-c3ccccc3)c12 [drawing 2358] | 1 to 25 | 51 to 75 |
| OCC1(c2ccc(-c3nc(-c4ccccn4)nc(-c4ccc(C5(CO)CC5)cc4)c3Oc3ccccc3)cc2)CC1 [drawing 2359] | 0 | 0 |
| COc1ccc(COC[C@H]2O[C@@H](c3csc4c(=O)[nH]c(-c5ccccn5)nc34)[C@H](O)[C@@H]2O)cc1 [drawing 2360] | 26 to 50 | 1 to 25 |
| OCC1(c2ccc(-c3nc(-c4ccccn4)nc(O)c3Oc3ccccc3)cc2)CC1 [drawing 2361] | 26 to 50 | 0 |
| COCCNc1nc(-c2nccn2C)nc2sc(-c3ccccc3)c(-c3ccccc3)c12 [drawing 2362] | 26 to 50 | 51 to 75 |
| Cn1ccnc1-c1nc(O)c2c(-c3ccccc3)c(-c3ccccc3)sc2n1 [drawing 2363] | 26 to 50 | 1 to 25 |
| Cn1cnc(-c2nc(O)c3c(-c4ccccc4)c(-c4ccc(CNC(=O)OC(C)(C)C)cc4)sc3n2)c1 [drawing 2364] | 0 | 1 to 25 |
| COCCNc1nc(-c2ccccn2)nc2c1c(-c1ccccc1)nn2-c1ccccn1 [drawing 2365] | 51 to 75 | 76 to 100 |
| Oc1nc(-c2ccccn2)nc2c1c(-c1ccccc1)nn2-c1ccccn1 [drawing 2366] | 1 to 25 | 51 to 75 |
| COc1nc(-c2ccccn2)nc2c1c(-c1ccccc1)nn2-c1ccccn1 [drawing 2367] | 76 to 100 | 76 to 100 |
| COCC(C)Nc1nc(-c2ccccn2)nc2sc(-c3ccncc3)c(-c3ccccc3)c12 (stereo not shown) [drawing 2368] | 26 to 50 | 0 |
| Nc1nc(O)c2sc(-c3cccc(C(=O)NC4CCNC4=O)c3)cc2n1 (stereo not shown) [drawing 2369] | 1 to 25 | 1 to 25 |
| Nc1nc(O)c2sc(-c3cccc(C(=O)N4CCC(O)C4)c3)cc2n1 (stereo not shown) [drawing 2370] | 0 | 0 |
| NC(=O)C1CCCN1C(=O)c1cccc(-c2cc3nc(N)nc(O)c3s2)c1 (stereo not shown) [drawing 2371] | 0 | 0 |
| Nc1nc(O)c2sc(-c3cccc(C(=O)NCc4ncc[nH]4)c3)cc2n1 [drawing 2372] | 0 | 0 |
| Nc1nc(O)c2sc(-c3cccc(C(=O)NCc4cccc(O)n4)c3)cc2n1 [drawing 2373] | 0 | 51 to 75 |
| COC(=O)c1nc(-c2ccccn2)nc(O)c1O [drawing 2374] | 0 | 0 |
| Oc1nc(-c2ccccn2)nc2c(-c3ccccc3)c(-c3ccncc3)sc12 [drawing 2375] | 0 | 1 to 25 |
| Cn1cnc(-c2nc(O)c3sc(-c4ccncc4)c(-c4ccccc4)c3n2)c1 [drawing 2376] | 0 | 1 to 25 |

| SMILES | inhibition at 30 µM [1] [%] | inhibition at 30 µM [2] [%] |
| --- | --- | --- |
| COCC(C)Nc1nc(-c2ccccn2)nc(C(=O)NCCCc2c[nH]cn2)c1Oc1ccccc1 (stereo not shown) [drawing 2377] | 0 | 1 to 25 |
| Nc1nc(-c2ccccn2)nc(C(=O)NCCc2ccncc2)c1Oc1ccccc1 [drawing 2378] | 0 | 0 |
| COc1nc(-c2ccccn2)nc(Oc2cccc(C(F)(F)F)c2)c1OC [drawing 2379] | 1 to 25 | 1 to 25 |
| Oc1nc(-c2ccccn2)nc2c(Br)c(-c3ccccc3)sc12 [drawing 2380] | 0 | 1 to 25 |
| CC(C)(C)c1sc2c(O)nc(-c3ccccn3)nc2c1Br [drawing 2381] | 1 to 25 | 0 |
| Cc1ccc(-c2cc3nc(-c4ccccn4)nc(O)c3s2)cc1 [drawing 2382] | 1 to 25 | 1 to 25 |
| Oc1nc(-c2ccccn2)nc2cc(-c3ccccc3Cl)sc12 [drawing 2383] | 0 | 26 to 50 |
| COc1c(O)nc(-c2ccccn2)nc1Oc1cccc(C(F)(F)F)c1 [drawing 2384] | 26 to 50 | 1 to 25 |
| Oc1nc(-c2ccccn2)nc(Oc2cccc(C(F)(F)F)c2)c1O [drawing 2385] | 1 to 25 | 1 to 25 |
| Oc1nc(-c2ccccn2)nc2cc(-c3ccc(-c4ccccc4)cc3)sc12 [drawing 2386] | 1 to 25 | 51 to 75 |
| Cc1ccc(-c2csc3c(O)nc(-c4ccccn4)nc23)cc1 [drawing 2387] | 1 to 25 | 0 |
| Oc1nc(-c2ccccn2)nc2cc(-c3ccncc3)sc12 [drawing 2388] | 1 to 25 | 26 to 50 |
| Oc1nc(-c2ccccn2)nc2cc(-c3ccccc3)sc12 [drawing 2389] | 1 to 25 | 26 to 50 |
| COc1ccc(-c2cc3nc(-c4ccccn4)nc(O)c3s2)cc1 [drawing 2390] | 1 to 25 | 0 |
| Oc1nc(-c2ccccn2)nc2cc(-c3cccc(Br)c3)sc12 [drawing 2391] | 1 to 25 | 1 to 25 |
| COc1nc(-c2ccccn2)nc(Oc2cccc(C(F)(F)F)c2)c1O [drawing 2392] | 1 to 25 | 0 |
| COCCN(C)c1nc(-c2nccn2C)nc2sc(-c3ccccc3)c(-c3ccccc3)c12 [drawing 2393] | 76 to 100 | 76 to 100 |
| CC(C)OCCNc1nc(-c2nccn2C)nc2sc(-c3ccccc3)c(-c3ccccc3)c12 [drawing 2394] | 1 to 25 | 1 to 25 |
| Cn1ccnc1-c1nc(NCCOC(F)(F)F)c2c(-c3ccccc3)c(-c3ccccc3)sc2n1 [drawing 2395] | 1 to 25 | 26 to 50 |
| CC(O)CNc1nc(-c2nccn2C)nc2sc(-c3ccccc3)c(-c3ccccc3)c12 (stereo not shown) [drawing 2396] | 0 | 26 to 50 |
| COCCCNc1nc(-c2nccn2C)nc2sc(-c3ccccc3)c(-c3ccccc3)c12 [drawing 2397] | 76 to 100 | 76 to 100 |

— patent publication US10940139B2, “Compounds that interact with the Ras superfamily for the treatment of cancers, inflammatory diseases, rasopathies, and fibrotic disease” (Shy Therapeutics LLC, priority 2017, dated 2021)
